The source of these data is publication PMC3250100 (The Journal of General Physiology, 2012).

This test concerns the target Cx50 (Mus musculus, UniProt P28236). It is filed as biochemical.

Broadly, the IC50 is the concentration needed to halve the response being measured. High values mean weaker potency in that assay, low ones greater potency in that assay.

Sequence of Cx50 (P28236 2-440): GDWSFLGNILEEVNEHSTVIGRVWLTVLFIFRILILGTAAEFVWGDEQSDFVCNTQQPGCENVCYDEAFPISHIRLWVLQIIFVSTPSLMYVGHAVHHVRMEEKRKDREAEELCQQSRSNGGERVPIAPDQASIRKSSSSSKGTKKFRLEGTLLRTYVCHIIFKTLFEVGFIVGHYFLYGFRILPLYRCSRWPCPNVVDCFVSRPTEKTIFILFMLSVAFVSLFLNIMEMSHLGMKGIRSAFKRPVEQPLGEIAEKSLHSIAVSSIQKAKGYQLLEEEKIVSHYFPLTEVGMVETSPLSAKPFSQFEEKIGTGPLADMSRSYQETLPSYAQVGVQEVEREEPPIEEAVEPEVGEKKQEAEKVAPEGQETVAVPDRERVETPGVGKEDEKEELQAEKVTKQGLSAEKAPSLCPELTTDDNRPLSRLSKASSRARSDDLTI

`C=C[C@H]1C[N+]2(Cc3ccccc3)CC[C@H]1C[C@H]2[C@H](O)c1ccnc2ccc(OC)cc12` [BQ+, N-benzylquininium] displayed an IC50 of 340 µM.
